Drawing on BindingDB's records for PubMed 38340508 (Biomedical Research Foundation of the Academy of Athens), this text covers IC50 for one compound.

The experiment in a line: Inhibition of MYC in chicken embryonic fibroblasts assessed as reduction in transformed cell foci with repeated addition of compounds every second day and measured after 1 to 3 weeks by crystal violet staining based analysis.

Each structure is given as a SMILES string.

On to `Cc1cc(N2CCCCC2)nc2ccc(Cc3ccc4nc(N5CCCCC5)cc(C)c4c3)cc12`, for which the IC50 is 3000 nM.
